From patent US11241436B2, “Autophagy inducers for treatment of CNS conditions” (Northwestern University, priority 2017, dated 2022)

Assays:
Aβ42 = assay: Dot blot assay of Aβ42 in brain of 5XFAD mice; format: in vivo, mouse; details: 5XFAD Becn1 F121A mice, 2 mg/kg i.p. once per day for 7 days
Method: Total protein loading was labeled by Ponceau S. N=5. **, P<0.01, t test.
Total protein loading was labeled by Ponceau S. Triplicate experiments from 4-5 mice in each group were shown. Results represent mean±s.e.m. NS, not significant; *, P<0.05; **, P<0.01; ***, P<0.001, t test.
Total protein loading was labeled by Ponceau S. Triplicate experiments from 4 mice in each group were shown.
Dot blot assay. Snap frozen hemi-brain were homogenized in 800 μl phosphate-buffered saline (PBS; Sigma-Aldrich, D8537) with 1% Triton X-100 supplemented with halt proteinase inhibitor cocktail (ThermoFisher Scientific), and halt phosphatase inhibitor cocktail (ThermoFisher Scientific). Protein concentration was quantified using BCA Assay (Pierce). For Af342 dot blots, 10 mg/ml brain homogenates were extracted in guanidine buffer (5 M guanidine-HCl [GuHCl], 50 mM Tris HCl pH 8.0) overnight at room temperature. One μl of sample was spotted in triplicate on 0.2 μm nitrocellulose membrane, and dried for 1 h at 37° C. The membrane was stained with Ponceau S, and the dot blot signal on the membrane was detected by immunostaining with Aβ42 antibody (Invitrogen, 700254, 1:1000) and HRP-conjugated secondary antibody (Santa Cruz Biotechnology, sc2004, 1:2000). Aβ42 signals were normalized to the Ponceau S staining. To separate soluble and insoluble Aβ fractions, 10 mg/ml of the total homogenated brains were centrifuged at 14000 rpm, 4° C. for 30 min. The supernatant (soluble fraction) was used directly for dot blot assays. The pellet (insoluble fraction) was extracted in guanidine buffer overnight at room temperature, and used in dot blot analyses. […] One μl of each sample was spotted on nitrocellulose membrane for dot blot analysis.

CB1R signaling = CB1R signaling in brain (phosphorylation of MEK and JNK) after chronic WIN; format: in vivo, mouse; details: repeated WIN treatment 14 d
Method: WT mice were treated with either daily WIN or vehicle for 14 d, and then subject to an acute dosage of WIN 1 h prior to collection of brain samples.
To investigate whether restoration of CB1R signaling underlies the behavioral regulation by autophagy activation, the level and functionality of CB1R in mouse brain after co-administration of chronic cannabinoids and autophagy inducers were analyzed. […] To determine whether the increased level of CB1R represents CB1R re-sensitization in the brain, the agonist-induced phosphorylation of signaling kinases downstream of CB1R after chronic WIN exposure were analyzed.

[1] = Body weight during chronic WIN treatment; format: in vivo, mouse; details: mice of all genotypes during chronic WIN treatment
Text: N=9-13 mice/group. Results represent mean±s.e.m.

WT mice = assay: Analgesic tolerance test during chronic WIN treatment; format: in vivo, mouse; details: after 14 d of repeated WIN dosage (day 14)
Method: Briefly, mice were injected with WIN for 14 d, and analgesic tolerance was measured without WIN treatment on day 0, and after 1-h WIN treatment on day 1 and day 14.
There were no genotype differences either in basal pain sensitivity to infrared heat-generated pain (agonist-free, day 0) (FIG. 2C), or in analgesic effects of acute WIN treatment prior to chronic WIN administration (day 1) (FIG. 2D).

LC3 = assay: Promega Autophagy Assay System (HiBiT-tagged LC3 reporter, autophagy flux); format: cell-based; details: LC3 reporter signal; decrease = increased autophagy
Text: The Promega Augophagy Assay System uses LC3 to monitor the autophagy process. […] LgBiT is a […] recombinant protein derived from NanoLuc. When HiBiT associates with LgBiT, a strong luciferase activity is reconstituted. An increase in autophagy will accelerate the degradation of LC3 reporter which decreases the assay signal. In contrast, inhibition of autophagy causes the accumulation of LC3 which will increase the reporter levels and assay signal.

| SMILES | AC50 (LC3) | also measured |
| --- | --- | --- |
| CNC(=O)c1ccccc1Oc1nc(Nc2cc(OC)c(OC)c(OC)c2)ncc1Br [SBI-0206965, reference compound] | – | Becn1 F121A-induced reduction in brain Aβ42 levels (Aβ42): abolished the reduction |
| Cc1c(C(=O)c2cccc3ccccc23)c2cccc3c2n1[C@H](CN1CCOCC1)CO3 [WIN, reference compound] | – | activation of CB1R (CNR1) signaling induced by agonists (CB1R signaling): decreased activation; body weight [1]: remained constant; analgesic effect of WIN (WT mice): markedly decreased |
| N=c1c2c(-c3ccccc3)c(-c3ccccc3)n(Cc3ccccc3)c2ncn1CC1CCOC1 (stereo not drawn) | 20.6 µM | – |
| N=c1c2c(-c3ccccc3)c(-c3ccccc3)n(Cc3ccccc3)c2ncn1CCNc1ccncc1 | 20.6 µM | – |
| COC(Cn1cnc2c(c(-c3ccccc3)c(-c3ccccc3)n2CCc2ccccc2)c1=N)OC | 23.1 µM | – |
| N=c1c2c(-c3ccccc3)c(-c3ccccc3)n(Cc3ccccc3)c2ncn1C1CCC(O)CC1 (stereo not drawn) | 2.91 µM | – |
| N=c1c2c(-c3ccccc3)c(-c3ccccc3)n(CC3CCCCC3)c2ncn1C1CCOCC1 | 10.3 µM | – |
